Data published in patent US6737383B1, “Herbicidal oxadiazolidines” (priority 1999, dated 2004).

Assays:
crabgrass = assay: Test B pre/postemergence crabgrass; format: in vivo, Digitaria sanguinalis
Summary of the method: (§1)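 Response is a visual 0-to-10 score relative to untreated plants, where 0 means no effect and 10 means complete control, taken twelve to sixteen days after application. Treatments went onto soil at planting and onto foliage of 1- to 4-leaf plants, using a surfactant-containing non-phytotoxic solvent.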

sugar beet = assay: Test B pre/postemergence sugar beet; format: in vivo, Beta vulgaris
Summary of the method: as §1

soybean = assay: Test B pre/postemergence soybean; format: in vivo, Glycine max
Summary of the method: as §1

giant foxtail = assay: Test B pre/postemergence giant foxtail; format: in vivo, Setaria faberii
Summary of the method: as §1

corn = assay: Test B pre/postemergence corn; format: in vivo, Zea mays
Summary of the method: as §1

morningglory = assay: Test B pre/postemergence morningglory; format: in vivo, Ipomoea hederacea
Summary of the method: as §1

duck salad = assay: Test B flood test duck salad; format: in vivo, Heteranthera limosa
Summary of the method: (§2)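 Flood test on plants grown to the 2-leaf stage; treated plants kept in greenhouse twelve to sixteen days, then visually rated against controls on a 0 (no effect) to 10 (complete control) scale.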

surinam grass = assay: Test B pre/postemergence surinam grass; format: in vivo, Brachiaria decumbens
Summary of the method: as §1

purple nutsedge = assay: Test B pre/postemergence purple nutsedge; format: in vivo, Cyperus rotundus
Summary of the method: as §1

pigweed = assay: Test B pre/postemergence pigweed; format: in vivo, Amaranthus retroflexus
Summary of the method: as §1

rice = assay: Test B flood test rice; format: in vivo, Oryza sativa
Summary of the method: as §2

blackgrass = assay: Test B pre/postemergence blackgrass; format: in vivo, Alopecurus myosuroides
Summary of the method: as §1

smallflower flatsedge = assay: Test B flood test smallflower flatsedge; format: in vivo, Cyperus difformis
Summary of the method: as §2

wild oat = assay: Test B pre/postemergence wild oat; format: in vivo, Avena fatua
Summary of the method: as §1

cocklebur = assay: Test B pre/postemergence cocklebur; format: in vivo, Xanthium strumarium
Summary of the method: as §1

bedstraw = assay: Test B pre/postemergence bedstraw; format: in vivo, Galium aparine
Summary of the method: as §1

[1] = Postemergence, Rate 62 g/ha, scale 0 to 10, 0 is no effect, 10 is complete control
[2] = Postemergence, Rate 250 g/ha, scale 0 to 10, 0 no effect, 10 complete control
[3] = Preemergence, Rate 62 g/ha, scale 0 to 10 (0 no effect, 10 complete control)
[4] = Preemergence, Rate 125 g/ha, scale 0 to 10 (0 no effect, 10 complete control)
[5] = Preemergence, Rate 250 g/ha, scale of 0 to 10 where 0 is no effect and 10 is complete control
[6] = Preemergence, Rate 500 g/ha, scale 0 (no effect) to 10 (complete control)
[7] = Rate 125 g/ha, Postemergence, scale 0 to 10, 0 no effect, 10 complete control
[8] = Rate 500 g/ha, Postemergence, scale 0 to 10, 0 no effect, 10 complete control
[9] = Rate 125 g/ha, Postemergence section (flood test species), scale 0 to 10, 0 no effect, 10 complete control
[10] = Rate 500 g/ha, listed under Postemergence (flood test species), scale 0 to 10, 0 no effect, 10 complete control
[11] = flood test, listed under Postemergence, Rate 250 g/ha, scale 0 to 10, 0 no effect, 10 complete control

Which “Crabgrass plant response rating” value (crabgrass; [1]) does the source give for Cc1cc(C)c(-n2c(=O)on(C(=O)N(c3ccc(Cl)cc3)C(C)C)c2=O)c(C)c1 [Compound 61] here?
The value was 0.

What about the “Crabgrass plant response rating” value (crabgrass; [2]) of the same compound?
Its value is 0.

What about the “Crabgrass plant response rating” value (crabgrass; [3]) of the same compound?
The value was 0.

And the “Plant response rating, Crabgrass” value (crabgrass; [4])?
The value was 4.

And the “Plant response rating, Crabgrass” value (crabgrass; [5])?
The value was 7.

What about the “Crabgrass plant response rating” value (crabgrass; [6]) of the same compound?
Its value is 8.

What about the “Crabgrass plant response rating” value (crabgrass; [7]) of the same compound?
Its value is 0.

What about the “Crabgrass plant response rating” value (crabgrass; [8]) of the same compound?
Its value is 0.

And the “Sugarbeets plant response rating” value (sugar beet; [1])?
Its value is 0.

And the “Sugarbeets plant response rating” value (sugar beet; [2])?
The value was 2.

And the “Sugarbeets plant response rating” value (sugar beet; [3])?
The value was 0.

What about the “Plant response rating, Sugarbeets” value (sugar beet; [4]) of the same compound?
Its value is 0.

What about the “Plant response rating, Sugarbeets” value (sugar beet; [5]) of the same compound?
Its value is 5.

What about the “Sugarbeets plant response rating” value (sugar beet; [6]) of the same compound?
Its value is 6.

What about the “Sugarbeets plant response rating” value (sugar beet; [7]) of the same compound?
Its value is 2.

What about the “Sugarbeets plant response rating” value (sugar beet; [8]) of the same compound?
The value was 6.

And the “Soybean plant response rating” value (soybean; [1])?
The value was 1.

What about the “Soybean plant response rating” value (soybean; [2]) of the same compound?
The value was 4.

And the “Soybean plant response rating” value (soybean; [3])?
Its value is 0.

And the “Plant response rating, Soybean” value (soybean; [4])?
The value was 0.

What about the “Plant response rating, Soybean” value (soybean; [5]) of the same compound?
The value was 0.

And the “Soybean plant response rating” value (soybean; [6])?
The value was 0.

And the “Soybean plant response rating” value (soybean; [7])?
Its value is 3.

What about the “Soybean plant response rating” value (soybean; [8]) of the same compound?
The value was 5.

And the “Giant foxtail plant response rating” value (giant foxtail; [1])?
The value was 0.

What about the “Giant foxtail plant response rating” value (giant foxtail; [2]) of the same compound?
Its value is 0.

And the “Giant foxtail plant response rating” value (giant foxtail; [3])?
Its value is 3.

What about the “Plant response rating, Giant foxtail” value (giant foxtail; [4]) of the same compound?
The value was 7.

What about the “Plant response rating, Giant foxtail” value (giant foxtail; [5]) of the same compound?
Its value is 9.

And the “Giant foxtail plant response rating” value (giant foxtail; [6])?
Its value is 10.

What about the “Giant foxtail plant response rating” value (giant foxtail; [7]) of the same compound?
Its value is 0.

And the “Giant foxtail plant response rating” value (giant foxtail; [8])?
The value was 0.

What about the “Corn plant response rating” value (corn; [1]) of the same compound?
The value was 0.

What about the “Corn plant response rating” value (corn; [2]) of the same compound?
Its value is 0.

What about the “Corn plant response rating” value (corn; [3]) of the same compound?
Its value is 0.

And the “Plant response rating, Corn” value (corn; [4])?
Its value is 0.

And the “Plant response rating, Corn” value (corn; [5])?
Its value is 0.

What about the “Corn plant response rating” value (corn; [6]) of the same compound?
The value was 0.

And the “Corn plant response rating” value (corn; [7])?
The value was 0.

What about the “Corn plant response rating” value (corn; [8]) of the same compound?
The value was 0.

And the “Morningglory plant response rating” value (morningglory; [1])?
The value was 2.

What about the “Morningglory plant response rating” value (morningglory; [2]) of the same compound?
The value was 4.

And the “Morningglory plant response rating” value (morningglory; [3])?
Its value is 0.

And the “Plant response rating, Morningglory” value (morningglory; [4])?
The value was 0.

And the “Plant response rating, Morningglory” value (morningglory; [5])?
The value was 0.

And the “Morningglory plant response rating” value (morningglory; [6])?
The value was 0.

What about the “Morningglory plant response rating” value (morningglory; [7]) of the same compound?
The value was 2.

And the “Morningglory plant response rating” value (morningglory; [8])?
The value was 8.

What about the “Ducksalad plant response rating” value (duck salad; [1]) of the same compound?
The value was 0.

And the “Ducksalad plant response rating” value (duck salad; [9])?
The value was 0.

What about the “Ducksalad plant response rating” value (duck salad; [10]) of the same compound?
The value was 0.

What about the “Ducksalad plant response rating” value (duck salad; [11]) of the same compound?
The value was 0.

And the “B. signalgrass plant response rating” value (surinam grass; [1])?
The value was 0.

What about the “B. signalgrass plant response rating” value (surinam grass; [2]) of the same compound?
Its value is 0.

And the “B. signalgrass plant response rating” value (surinam grass; [3])?
The value was 0.

And the “Plant response rating, B. signalgrass” value (surinam grass; [4])?
The value was 1.

What about the “Plant response rating, B. signalgrass” value (surinam grass; [5]) of the same compound?
Its value is 5.

What about the “B. signalgrass plant response rating” value (surinam grass; [6]) of the same compound?
Its value is 5.

What about the “B. signalgrass plant response rating” value (surinam grass; [7]) of the same compound?
Its value is 0.

And the “B. signalgrass plant response rating” value (surinam grass; Rate 500 g/ha, Postemergence, scale of 0 to 10 where 0 is no effect and 10 is complete control)?
Its value is 1.

And the “Nutsedge plant response rating” value (purple nutsedge; [1])?
The value was 0.

And the “Nutsedge plant response rating” value (purple nutsedge; [2])?
The value was 0.

What about the “Nutsedge plant response rating” value (purple nutsedge; [3]) of the same compound?
The value was 0.

What about the “Plant response rating, Nutsedge” value (purple nutsedge; [4]) of the same compound?
The value was 0.

What about the “Plant response rating, Nutsedge” value (purple nutsedge; [5]) of the same compound?
Its value is 0.

And the “Nutsedge plant response rating” value (purple nutsedge; [6])?
Its value is 0.

And the “Nutsedge plant response rating” value (purple nutsedge; [7])?
Its value is 0.

What about the “Nutsedge plant response rating” value (purple nutsedge; [8]) of the same compound?
The value was 0.

And the “Redroot pigweed plant response rating” value (pigweed; [1])?
Its value is 1.

And the “Redroot pigweed plant response rating” value (pigweed; [2])?
Its value is 3.

And the “Redroot pigweed plant response rating” value (pigweed; [3])?
Its value is 0.

What about the “Plant response rating, Redroot pigweed” value (pigweed; [4]) of the same compound?
Its value is 0.

What about the “Plant response rating, Redroot pigweed” value (pigweed; [5]) of the same compound?
Its value is 1.

What about the “Redroot pigweed plant response rating” value (pigweed; [6]) of the same compound?
Its value is 3.

What about the “Redroot pigweed plant response rating” value (pigweed; [7]) of the same compound?
Its value is 2.

And the “Redroot pigweed plant response rating” value (pigweed; [8])?
The value was 4.

What about the “Rice plant response rating” value (rice; [1]) of the same compound?
The value was 0.

What about the “Rice plant response rating” value (rice; [9]) of the same compound?
Its value is 0.

And the “Rice plant response rating” value (rice; [10])?
Its value is 0.

What about the “Rice plant response rating” value (rice; [11]) of the same compound?
Its value is 0.

What about the “Blackgrass plant response rating” value (blackgrass; [1]) of the same compound?
The value was 0.

What about the “Blackgrass plant response rating” value (blackgrass; [2]) of the same compound?
Its value is 6.

And the “Blackgrass plant response rating” value (blackgrass; [3])?
The value was 0.

And the “Plant response rating, Blackgrass” value (blackgrass; [4])?
Its value is 0.

And the “Plant response rating, Blackgrass” value (blackgrass; [5])?
The value was 5.

What about the “Blackgrass plant response rating” value (blackgrass; [6]) of the same compound?
The value was 6.

What about the “Blackgrass plant response rating” value (blackgrass; [7]) of the same compound?
The value was 3.

What about the “Blackgrass plant response rating” value (blackgrass; [8]) of the same compound?
The value was 7.

And the “S. Flatsedge plant response rating” value (smallflower flatsedge; [1])?
Its value is 0.

What about the “S. Flatsedge plant response rating” value (smallflower flatsedge; [9]) of the same compound?
Its value is 0.

What about the “S. Flatsedge plant response rating” value (smallflower flatsedge; [10]) of the same compound?
Its value is 0.

What about the “S. Flatsedge plant response rating” value (smallflower flatsedge; [11]) of the same compound?
Its value is 0.

What about the “Wild oats plant response rating” value (wild oat; [1]) of the same compound?
The value was 0.

And the “Wild oats plant response rating” value (wild oat; [2])?
The value was 0.

What about the “Wild oats plant response rating” value (wild oat; [3]) of the same compound?
Its value is 0.

And the “Plant response rating, Wild oats” value (wild oat; [4])?
Its value is 0.

And the “Plant response rating, Wild oats” value (wild oat; [5])?
Its value is 0.

What about the “Wild oats plant response rating” value (wild oat; [6]) of the same compound?
Its value is 3.

What about the “Wild oats plant response rating” value (wild oat; [7]) of the same compound?
The value was 0.

And the “Wild oats plant response rating” value (wild oat; [8])?
The value was 0.

And the “Cocklebur plant response rating” value (cocklebur; [1])?
Its value is 0.

What about the “Cocklebur plant response rating” value (cocklebur; [2]) of the same compound?
Its value is 0.

And the “Cocklebur plant response rating” value (cocklebur; [3])?
The value was 0.

And the “Plant response rating, Cocklebur” value (cocklebur; [4])?
The value was 0.

And the “Plant response rating, Cocklebur” value (cocklebur; [5])?
The value was 0.

What about the “Cocklebur plant response rating” value (cocklebur; [6]) of the same compound?
The value was 0.

What about the “Cocklebur plant response rating” value (cocklebur; [7]) of the same compound?
The value was 0.

What about the “Cocklebur plant response rating” value (cocklebur; [8]) of the same compound?
The value was 1.

And the “Bedstraw plant response rating” value (bedstraw; [1])?
The value was 2.

What about the “Bedstraw plant response rating” value (bedstraw; [2]) of the same compound?
The value was 6.

What about the “Bedstraw plant response rating” value (bedstraw; [3]) of the same compound?
Its value is 0.

What about the “Plant response rating, Bedstraw” value (bedstraw; [4]) of the same compound?
Its value is 0.

What about the “Plant response rating, Bedstraw” value (bedstraw; [5]) of the same compound?
Its value is 2.

What about the “Bedstraw plant response rating” value (bedstraw; [6]) of the same compound?
Its value is 2.

And the “Bedstraw plant response rating” value (bedstraw; [7])?
Its value is 3.
